Laboratory results taken from patent US10329304B2, “Compounds and methods for inhibition of hedgehog signaling and phosphodiesterase” (Vanderbilt University, priority 2014, dated 2019).
Values joined by “and” are separate entries in the source; they are usually repeats but may differ in a detail not shown here. Equal entries are not always repeated. Where two headings read alike, the source gives them in different places.

Tests used:
PC3 = experiment: Cell viability assay (CellTiter-Blue, 72 hr); type: cell-based; settings: PC-3; human cancer cells; read-out: CELL KILLING EC50 (μM) Prostate PCx3
Description: (§1) Cancer cell lines were seeded in 96 well tissue culture plate at a low density (10,000 cells per well) and treated with varying concentrations of Eggmanone. After 72 hr incubation, CellTiter-Blue Cell Viability Assay (Promega, Madison, Wis.) was then performed according to manufacturer's protocol. Absorbance was then measured in a Modulus Microplate reader (Promega, Madison, Wis.) at 590 nm and compared to cells treated with DMSO.

H82 = experiment: Cell killing EC50 in H82 lung cancer cells (Table 10); type: cell-based; settings: human cancer cells; for EC50: NCI-H82
Description: It is anticipated that compounds disclosed herein could serve as an anti-tumor, anti-angiogenic, anti-metastatic, agent in the treatment of cancer. To this end, a series of clinically relevant cancer lines were assayed and the cell-killing EC50s for compounds according to the subject matter disclosed herein are provided in Table 10.

MCF7 = experiment: Cell viability assay (CellTiter-Blue, 72 hr); type: cell-based; settings: human cancer cells; for EC50: MCF7, read-out: CELL KILLING EC50 (μM) Breast MCF7
Description: as §1
(§2) Cancer cell lines were seeded in 96 well tissue culture plate at a low density and treated with varying concentrations of compounds identified in Table 7. After 72 hr incubation, CellTiter-Blue Cell Viability Assay (Promega, Madison, Wis.) was then performed according to manufacturer's protocol. Absorbance was then measured in a Modulus Microplate reader (Promega, Madison, Wis.) at 590 nm and compared to cells treated with DMSO.

HeLa = experiment: Cell viability assay (CellTiter-Blue, 72 hr); type: cell-based, Human; settings: human cancer cells, read-out: CELL KILLING EC50 (μM) Cervix HeLa
Description: as §1, §2

DU145 = experiment: Cell viability assay (CellTiter-Blue, 72 hr); type: cell-based, Human; settings: DU-145; human cancer cells; read-out: CELL KILLING EC50 (μM) Prostate DU145
Description: as §1, §2

HCT116 = experiment: Cell viability assay (CellTiter-Blue, 72 hr); type: cell-based, Human; settings: HCT-116; human cancer cells; read-out: CELL KILLING EC50 (μM) Colon HTC116
Description: as §1, §2

RKO = experiment: Cell viability assay (CellTiter-Blue, 72 hr); type: cell-based, Human; settings: for EC50: RKO
Description: as §1, §2

RWGT2 = experiment: Cell viability assay (CellTiter-Blue, 72 hr); type: cell-based, Human; settings: human cancer cells; read-out: CELL KILLING EC50 (μM) Lung Squam, NSCLC RWGT2
Description: as §1, §2

DaoY = experiment: Cell viability assay (CellTiter-Blue, 72 hr); type: cell-based, Human; settings: Daoy; human cancer cells; read-out: CELL KILLING EC50 (μM) Medulloblastoma DaoY
Description: as §1, §2

SW480 = experiment: Cell viability assay (CellTiter-Blue, 72 hr); type: cell-based, Human
Description: as §1, §2

MDA-MB- 231 = experiment: Cell viability assay (CellTiter-Blue, 72 hr); type: cell-based, Human; settings: MDA-MB-231; human cancer cells; read-out: CELL KILLING EC50 (μM) Breast MDA-231
Description: as §1, §2

[1] = test system: Hedgehog signaling (Gli-Luc reporter); experiment: Hh Gli-Luciferase reporter assay in Shh-Light2 cells; type: cell-based, mouse; settings: Mus musculus, Shh Light2; for EC50: read-out: Shh Light2 Luc EC50
In short: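 Shh-Light2 cells with stable Gli-luciferase were stimulated by Shh-conditioned medium (or 3 μM purmorphamine or 20 nM SAG), or transfected with Gli-2, PDE4D3 or DN-PDE4D3. Overnight compound incubation preceded Steady-Glo read-out, normalized to CellTiter-Glo.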

B16F11 = experiment: Cell viability assay (CellTiter-Blue, 72 hr); type: cell-based, Mouse; settings: Mus musculus, B16-F10; Table 10; read-out: CELL KILLING EC50 (μM) Melanoma B16F10
Description: as §1, §2

PDE4D3 = target: T1, PDE4D3 (Homo sapiens, UniProt Q08499); experiment: In vitro PDE assay; type: biochemical
T1 construct: purchased BPS Biosciences (San Diego, Calif.); kinetic studies by Millipore (St. Louis, Mo.)
T1 sequence (Q08499 1-673 isoform Q08499-2): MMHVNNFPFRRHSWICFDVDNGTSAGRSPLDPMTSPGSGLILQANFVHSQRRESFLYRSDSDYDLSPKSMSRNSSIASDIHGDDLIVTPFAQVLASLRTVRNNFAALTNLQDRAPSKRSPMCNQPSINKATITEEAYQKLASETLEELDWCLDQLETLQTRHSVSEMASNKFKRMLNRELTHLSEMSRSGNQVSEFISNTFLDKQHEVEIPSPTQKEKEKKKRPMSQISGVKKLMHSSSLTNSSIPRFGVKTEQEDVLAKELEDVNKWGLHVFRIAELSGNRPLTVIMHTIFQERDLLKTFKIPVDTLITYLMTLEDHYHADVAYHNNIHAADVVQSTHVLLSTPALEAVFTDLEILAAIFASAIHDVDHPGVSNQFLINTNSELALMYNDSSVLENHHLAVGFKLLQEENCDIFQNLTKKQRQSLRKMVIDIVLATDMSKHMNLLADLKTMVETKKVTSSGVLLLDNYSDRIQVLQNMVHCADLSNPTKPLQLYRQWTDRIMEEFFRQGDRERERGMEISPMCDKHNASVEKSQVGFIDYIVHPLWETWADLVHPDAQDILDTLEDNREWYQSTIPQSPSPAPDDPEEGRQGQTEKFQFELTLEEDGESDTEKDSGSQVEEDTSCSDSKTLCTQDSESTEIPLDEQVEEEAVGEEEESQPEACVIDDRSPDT
Description: (§3) In vitro PDE profiling and dose-response assays were performed by BPS Biosciences (San Diego, Calif.). Kinetic Mechanism of inhibition studies were conducted by Millipore (St. Louis, Mo.). In brief, the PDE assay measures fluorescent polarization of FAM-AMP as FAM-cAMP is converted to FAM-AMP by PDE), the binding agent.
(§4) A series of dilutions of the test compound were prepared with 10% DMSO in assay buffer and 5 μl of the dilution was added to a 50 μl reaction so that the final concentration of DMSO is 1% in all of reactions. All of the PDE enzymatic reactions were conducted in duplicate at room temperature for 60 minutes in a 50 μl mixture containing PDE assay buffer (10 mM Tris-HCl, pH7.4, 10 mM MaCl2, 0.05% Tween 20), 100 nM FAM-cAMP, a PDE enzyme and a test compound.
(§5) After the enzymatic reaction, 100 μl of a binding solution (1:100 dilution of the binding agent, which contains the nano beads that recognize FAM-AMP, with the binding agent diluent) was added to each reaction and the reaction was performed at room temperature for 60 minutes. Fluorescence intensity was measured at an excitation of 485 nm and an emission of 528 nm using a Tecan Infinite M1000 microplate reader. Assays done by Millipore were conducted similarly with changes noted below: […]

PDE4D2 = target: T2, PDE4D2 (Homo sapiens, UniProt Q08499); experiment: In vitro PDE assay; type: biochemical
T2 construct: purchased BPS Biosciences (San Diego, Calif.)
T2 sequence (Q08499 303-809): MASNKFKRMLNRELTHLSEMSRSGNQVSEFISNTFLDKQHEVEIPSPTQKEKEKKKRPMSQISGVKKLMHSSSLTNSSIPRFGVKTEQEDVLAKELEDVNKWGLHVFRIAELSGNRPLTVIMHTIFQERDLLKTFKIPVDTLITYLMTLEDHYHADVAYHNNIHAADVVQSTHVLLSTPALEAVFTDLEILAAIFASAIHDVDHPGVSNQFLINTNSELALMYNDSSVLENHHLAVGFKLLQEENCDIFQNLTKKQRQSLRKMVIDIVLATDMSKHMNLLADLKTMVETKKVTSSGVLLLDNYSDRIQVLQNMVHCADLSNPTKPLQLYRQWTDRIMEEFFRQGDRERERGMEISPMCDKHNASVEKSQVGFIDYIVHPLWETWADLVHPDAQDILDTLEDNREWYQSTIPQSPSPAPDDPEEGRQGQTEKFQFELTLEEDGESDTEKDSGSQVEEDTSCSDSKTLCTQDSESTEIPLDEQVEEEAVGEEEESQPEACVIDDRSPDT
Description: as §3, §4, §5

PDE4D = PDE4D (Homo sapiens, UniProt Q08499); experiment: PDE4 inhibition assay (PDE4D IC50); type: biochemical; settings: read-out: PDE4D IC50
Sequence of PDE4D (Q08499 1-673 isoform Q08499-2): as the sequence (Q08499 1-673 isoform Q08499-2) above
Description: as §3, §4
After the enzymatic reaction, 100 μl of a binding solution (1:100 dilution of the binding agent, which contains the nano beads that recognize FAM-AMP, with the binding agent diluent) was added to each reaction and the reaction was performed at room temperature for 60 minutes. Fluorescence intensity was measured at an excitation of 485 nm and an emission of 528 nm using a Tecan Infinite M1000 microplate reader. Assays done by Millipore were conducted similarly with changes noted below:
Hedgehog signaling inhibition and PDE4 inhibition of various compounds disclosed herein was assayed as described herein above.

[2] = human cancer cells, read-out: CELL KILLING EC50 (μM) Colon RKO
[3] = SW480, human cancer cells, read-out: CELL KILLING EC50 (μM) Colon SW480

| SMILES | EC50 (PC3) [µM] | CELL KILLING EC50 (μM) Lung H82 (H82) | EC50 (MCF7) [µM] | EC50 (HeLa) [µM] | EC50 (DU145) [µM] | EC50 (HCT116) [µM] | EC50 (RKO; [2]) [µM] | EC50 (RWGT2) [µM] | EC50 (DaoY) [µM] | EC50 (SW480; [3]) [µM] | EC50 (MDA-MB- 231) [µM] | EC50 ([1]; Table 9A) [µM] | EC50 (B16F11) [µM] | IC50 (PDE4D3; Table 9A) [µM] | IC50 (PDE4D2; Table 9A) [µM] | EC50 (H82) [µM] | EC50 ([1]; Table 9B) [µM] | further results |
| --- | --- | --- | --- | --- | --- | --- | --- | --- | --- | --- | --- | --- | --- | --- | --- | --- | --- | --- |
| C=C(C)Cn1c(SCC(=O)N2Cc3ccccc3C2)nc2sc3c(c2c1=O)CCCC3 [Formula 1KMT] | 74 | UnCh | 1.08 | 49.7 | 32.4 | 89.2 | 75.6 | 51.1 | 58.2 | 4.89 | 68.3 | > 20 | 61.7 | 30 | 46 | – | – | – |
| C=C(C)Cn1c(SCC(=O)c2ccc(F)cc2)nc2sc3c(c2c1=O)CCCC3 [HI0863] | 47.7 | – | > 100 | 12.2 | 2.38 | 0.078 | 42.8 | 38.8 | 39.8 | 5.4 | 3.12 | – | 4.46 | – | – | > 100 | 2.44 | – |
| C=CCn1c(SCC(=O)c2ccccc2)nc2sc(C)cc2c1=O [HI277] | > 100 | – | > 100 | 5.11 | 180 | 136 | > 100 | 30.5 | 247 | 0.03 | 186 | – | > 100 | – | – | > 100 | > 10 | – |
| C=CCn1c(SCC(=O)c2ccc(Cl)s2)nc2sc(C)c(C)c2c1=O [HI499] | 202 | – | 2.67 | 441 | 48.8 | 28.1 | 35.7 | 45.8 | 177 | 0.69 | > 100 | – | 46 | – | – | > 100 | 4.6 to 9.5 | – |
| Cn1c(SCC(=O)c2ccc(F)cc2)nc2sc3c(c2c1=O)CCCC3 [HI302] | > 100 | – | > 100 | 20.2 | 0.078 | 21.9 | 0.0096 | 22.9 | 26.6 | 3.3 | 18.7 | – | 16 | – | – | > 100 | > 10 | – |
| C=C(C)Cn1c(SCC(=O)c2ccc(-c3ccccc3)cc2)nc2sc3c(c2c1=O)CCCC3 [Formula 1KXQ] | 41.1 | UnCh | – | 12.2 | 0.029 | 12 | – | 80.9 | 46.8 | 44 | > 100 | > 20 | 28.7 | > 100 | > 100 | – | – | CELL KILLING EC50 (μM) Breast MCF7 (MCF7): UnCh; CELL KILLING EC50 (μM) Colon RKO (RKO; human cancer cells): UnCh |
| CCCCn1c(SCC(=O)c2ccccc2)nc2sc3c(c2c1=O)CCC3 [HI352] | 0.03 | – | > 100 | 114 | 98.1 | 74.7 | 100 | 73.8 | 100 | 0.287 | 84.5 | – | 109 | – | – | > 100 | > 10 | IC50 (PDE4D3; Table 9B): 20 µM |
| C=CCn1c(SCC(=O)c2ccccc2)nc2scc(-c3ccccc3)c2c1=O [HI696] | > 100 | – | > 100 | 3.75 | > 100 | 3.2 | > 100 | 64.9 | 2.95 | 2.6 | 1.2 | – | 0.0066 | – | – | > 100 | < 1 | IC50 (PDE4D3; Table 9B): 14 µM; IC50 (PDE4D2; Table 9B): 7.4 µM |
| C=CCn1c(SCC(=O)N2CCN(C)CC2)nc2sc3c(c2c1=O)CCCC3 [Formula 1KN7] | 45.7 | UnCh | – | 27.5 | 91.4 | 21.3 | 8.39 | 28.4 | 58.6 | 0.0574 | 10.3 | 5 to 10 | 25.8 | 1.8 | 1.7 | – | – | CELL KILLING EC50 (μM) Breast MCF7 (MCF7): UnCh; EC50 (RKO; 72 h, read-out: EC50 (50% reduction of viable cell count at 72 hours), Human Colon Carcinoma): 8.39 µM; EC50 (SW480; 72 h, read-out: EC50 (50% reduction of viable cell count at 72 hours), SW480, Human Colorectal Adenocarcinoma): 0.057 µM; IC50 [1]: 10 µM; IC50 (PDE4D): 2.1 µM and 2.08 µM |
